# Test results published in article PMC4595804, “A strategy to discover decoy chemokine ligands with an anti-inflammatory activity” (Scientific Reports, 2015).
# How the values were obtained:
# CXCL12 = biological target: T1, CXCL12 (Homo sapiens, UniProt P48061); experiment: TRIC-r calcium assay, neutraligand protocol, EGFP-CXCR4+ HEK cells; type: cell-based; conditions: 10 μM compound, 5 nM CXCL12, EGFP-CXCR4+ HEK cells
# T1 construct: (His)6; made in house; host or cells: E. coli BL21 (DE3)
# CCL17 S74A = biological target: T2, CCL17 S74A (Homo sapiens, UniProt Q92583, S74A); experiment: Calcium responses induced by chemokine mutant, neutraligand protocol; type: cell-based; conditions: 10 μM compound, 5 nM chemokine; remaining response
# T2 construct: codes for the mature CCL17 or CCL22 with an N-terminal thioredoxin-hexahistidin (TRX- (His)6) tag; TRX-(His)6 (N, cleaved yes); made in house; host or cells: E. coli BL21 (DE3)
# Method: (§1) Dye loaded cells were placed in the FlexStation 3 (Molecular Devices). […] For the primary screening, the ligands (50μl of chemokine mixed with DMSO or test compounds) were added to the cells at 40 s, followed by digitonin addition (50μl) at 100 s to the cells. Molecules were screened at a final concentration of 2μg/ml with 5 nM CCL17 or CCL22. […] The calcium response values (height of peak response over baseline) were determined. Hits were selected by comparing the response amplitude at the time of the chemokine addition ± test compound. The Z’ factor[29] was calculated according to the following equation: Z’ = 1-(3SD+ + 3SD−)/|Ave+ − Ave−|, where SD+ and Ave+ are respectively the standard deviation and the mean value of the positive controls (chemokine + DMSO), while SD− and Ave− are respectively the standard deviation and the mean value of the negative controls (HEPES-BSA (0.1%) mixed with DMSO, or cells mixed with C-021). Hit molecules were confirmed by performing concentration-response curves and their half maximal inhibitory concentration (IC50) values were calculated using the Kaleidagraph software.
# (§2) and the denaturated chemokines (disulfite bonds reduced by β-mercaptoethanol). The
# (§3) chemokine activity was then, tested in the in vitro assays.
# (§4) On-column refolding and purification of CCL5, CXCL8, CXCL10, CXCL11, CXCL12, CCL17
# (§5) performed in a similar fashion as for CCL17 and CCL22. […]
# CCL17 R80W = biological target: T3, CCL17 R80W (Homo sapiens, UniProt Q92583, R80W); experiment: as above; type: cell-based; conditions: 10 μM compound, 5 nM chemokine; remaining response
# T3 construct: codes for the mature CCL17 or CCL22 with an N-terminal thioredoxin-hexahistidin (TRX- (His)6) tag; TRX-(His)6 (N, cleaved yes); made in house; host or cells: E. coli BL21 (DE3)
# Method: as §1, §2, §3, §4, §5
# CCL17 N78V = biological target: T4, CCL17 N78V (Homo sapiens, UniProt Q92583, N78V); experiment: as above; type: cell-based; conditions: 10 μM compound, 5 nM chemokine; remaining response
# T4 construct: codes for the mature CCL17 or CCL22 with an N-terminal thioredoxin-hexahistidin (TRX- (His)6) tag; TRX-(His)6 (N, cleaved yes); made in house; host or cells: E. coli BL21 (DE3)
# Method: as §1, §2, §3, §4, §5
# CCR4+ HUT78 cells = experiment: HUT78 chemotaxis: compounds alone or preincubated with the cells (antagonist protocol); type: cell-based, human; conditions: for chemotactic activity of the compound by itself: HUT78 cells, no chemokine; for inhibition of CCR4+ HUT78 T cell migration, compound preincubated with the cells: receptor antagonist protocol, 1 μM, 3 nM CCL17 or CCL22
# Method: Cell migration was carried out in RPMI1640-BSA (0.1%) using Transwell 96-well plates (Corning Costar, 5 μm pore size, polycarbonate membranes). […] Lower wells contained the same medium diluted with DMSO or chemokine (3 nM CCL17 or CCL22).
# 0.1% BSA using Transwell 96-well plates (Corning Costar, 5µm pore size, polycarbonate […]
# the same medium diluted with DMSO or chemokine (3nM CCL17 or CCL22). In neutraligand inhibition studies, prior to their use, CCL17 (a) and CCL22 (b) were pre-incubated with […]
# in the lower compartment. For characterization of the antagonist properties, the compounds were pre-incubated with the cells in the upper compartment. C-021 (1µM, stripped bars), the CCR4 receptor antagonist, was used as a control in both incubation protocols. Results are expressed as the percentage of cells that migrated to the lower chamber. Data represent the means±SD. Experiments were performed in triplicate.
# (1 picture or pasted object on this page, not shown here)
# T2 sequence (Q92583 24-94 S74A): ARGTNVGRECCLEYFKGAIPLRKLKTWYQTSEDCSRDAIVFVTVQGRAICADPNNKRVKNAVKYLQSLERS
# T4 sequence (Q92583 24-94 N78V): as the sequence (Q92583 24-94 S74A) above, with A51S, N55V counted along it
# T3 sequence (Q92583 24-94 R80W): as the sequence (Q92583 24-94 S74A) above, with A51S, R57W counted along it
# T1 sequence (P48061 22-93): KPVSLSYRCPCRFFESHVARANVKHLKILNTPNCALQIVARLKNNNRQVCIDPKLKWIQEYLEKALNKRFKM
SMILES,effect on calcium responses induced by CXCL12 (CXCL12),calcium response induced by CCL17 S74A preincubated with compound (CCL17 S74A),calcium response induced by CCL17 R80W preincubated with compound (CCL17 R80W),calcium response induced by CCL17 N78V preincubated with compound (CCL17 N78V),chemotactic activity of the compound by itself (CCR4+ HUT78 cells),"inhibition of CCR4+ HUT78 T cell migration, compound preincubated with the cells (CCR4+ HUT78 cells)"
"O=C(OCC(O)CO)c1ccccc1O (stereo not drawn) [GPN136, 2,3-dihydroxypropyl 2-hydroxybenzoate]",no effect,totally ineffective,totally ineffective,totally ineffective,devoid of chemotactic activity,no ability to inhibit
"CC(C)=CCn1cnc2c1c(=O)n(C)c(=O)n2C [GPN279, 1,3-dimethyl-7-(3-methylbut-2-enyl)-1H-purine-2,6(3H, 7H)-dione]",no effect,no longer acted as a neutralizing molecule,50.0 ± 11.0%,75.0 ± 6.0%,devoid of chemotactic activity,no ability to inhibit
